Laboratory results: patent US20170217982A1, “Compound isolated from Pseudolysimachion rotundum var. subintegrum, the composition comprising the same for treating allergic disease, inflammatory disease, asthma or chronic obstructive pulmonary disease and the use thereof” (YUNGJIN PHARMACEUTICAL CO., LTD, priority 2014, published 2017)
Values joined by “and” are separate entries in the source; they are usually repeats but may differ in a detail not shown here. Equal entries are not always repeated.

Assays:
NF-kappa B = NF-kappa B luciferase reporter assay in H292 cells; format: cell-based, human; settings: 10 μm, TNF-alpha 20 ng/ml
Protocol: NF-kappa B luciferase reporter assay was performed by following procedure disclosed in the literature (Pulin Che et al., Assay Drug Dev. Technol., 2012, 10, 61-68).
In order to establish the stable cells for NF-kappa B luciferase reporter assay, NF-kappa B response element was cloned into vector (pGL4.32 vector, E849A, Promega) according to the manufacture's protocol and infected to the cell (H292 cells, CRL-1848, ATCC) using by Lipofectamine 2000 (11668-019, Invitrogen). The infected cell was selected using by hygromycin (400 μg/ml) for 2 weeks and the colonies were individually cloned and proliferated. […] The test sample was pre-treated in a pre-determined concentration and 20 ng/ml of TNF-alpha was treated therewith for 12 hours. The activity of luciferase enzyme was determined by E6110 kit (OneGlo Luciferase Assay kit, Promega) and DMSO was used as a vehicle control.
The stably expressed H292 cells, a […] human bronchial epithelium cell, with luciferase reporter vector pGL4.32 (luc2P/NF-KB-RE/Hygro, Promega Company) were established prior to following experiment. […] The activation degree of luciferase was determined by One-glow Luciferase Assay system (Promega Company). […] The luminescence was determined by Microplate Luminometer LB 96V (EG&G Berthold company) for 0.5 sec and the result was shown in Table 5 and FIG. 3.

MUC5AC protein = test: Inhibition of MUC5AC protein secretion (modified ELISA) in H292 cells; format: cell-based, human; settings: TNF-alpha 20 ng/ml
Protocol: In order to determine the inhibitory effect on the reproduction of MUC5AC protein, following test was performed by the method disclosed in the literature (Sikder, M A. et al., Phytother. Res., 2014, 28, 62-68)
For the immunoassay on reproduced MUCSAC, 50 μL of collected supernatant in Experimental Example 3 was distributed to 96 well plate and dried in a thermostat at 50[…].
After washing with 1% BSA added PBS solution, MUCSAC antibody (ab3649, abcam Co.) was added to react together at room temperature for 1 hour and then secondary antibody was added thereto to react together for 1 hour. After re-washing, 3,3′,5,5′-tetramethylbenzidine peroxide solution (54827-17-7, Sigma-aldrich) was added thereto to react together for 20 mins. After stopping the reaction by adding sulfuric acid solution, the absorbance was determined by VERSAmax microplate reader, (SMP500-14915, Molecular Devices, USA) at 450 nm (Sikder, M. A. et al., Phytother. Res., 2014, 28, 62-68; Takeyama, K. et al. Proc. Natl. Acad. Sci. U.S.A., 1999, 96, 3081-3086).

O=C(CO)O[C@@H]1O[C@@H]2C[C@H]3[C@H](OC(=O)c4ccc(O)c(O)c4)[C@@H](Cl)[C@@](O)(CO2)[C@@H]13 [KS-534, (3R,5S,5aS,6R,7S,8R,8aS)-8-chloro-8a-hydroxy-5-(2-hydroxyacetoxy) hexahydro-1H-3,6-methanocyclopenta[e][1,3]dioxepin-7-yl3,4-dihydroxybenzoate]
Inhibitory ratio (%) of NF-kappa B activity (NF-kappa B): 36.65% | NF-kappa B activity (relative % comparing with TNF-alpha treatment group) (NF-kappa B): 63.35% and 63.35 ± 6.18% | Inhibitory ratio (%) of MUC5AC secretion (MUC5AC protein; 2.5 μm): 6.62% | MUC5AC secretion (relative % comparing with TNF-alpha treatment group) (MUC5AC protein; 2.5 μm): 93.38% and 93.38 ± 0.90% | Inhibitory ratio (%) of MUC5AC secretion (MUC5AC protein; 5 μm): 21.73% | MUC5AC secretion (relative % comparing with TNF-alpha treatment group) (MUC5AC protein; 5 μm): 78.27% and 78.27 ± 2.16% | Inhibitory ratio (%) of MUC5AC secretion (MUC5AC protein; 10 μm): 35.23% | MUC5AC secretion (relative % comparing with TNF-alpha treatment group) (MUC5AC protein; 10 μm): 64.77% and 64.77 ± 1.56%
